What all share (assay): titration with apoprotein, FMN absorbance or fluorescence
Test [1] has as its target T1, FMN-binding domain (FMN domain) of flavocytochrome P450BM-3 (BM3) (Priestia megaterium, UniProt P14779, P541A).
T1 sequence (P14779 472-650 P541A): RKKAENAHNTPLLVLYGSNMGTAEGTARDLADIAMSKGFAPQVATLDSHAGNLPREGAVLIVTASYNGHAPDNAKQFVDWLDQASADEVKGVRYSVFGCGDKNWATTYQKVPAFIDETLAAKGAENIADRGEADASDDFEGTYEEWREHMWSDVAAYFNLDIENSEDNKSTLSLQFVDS

Test [2] addresses T2, FMN-binding domain (FMN domain) of flavocytochrome P450BM-3 (BM3) (Priestia megaterium, UniProt P14779, N538A).
T2 sequence (P14779 472-650 N538A): T1 sequence (P14779 472-650 P541A) with N67A, A70P

The target in test [3] is T3, FMN-binding domain (FMN domain) of flavocytochrome P450BM-3 (BM3) (Priestia megaterium, UniProt P14779, G539A/N538G).
T3 sequence (P14779 472-650 N538G/G539A): T1 sequence (P14779 472-650 P541A) with N67G, G68A, A70P

Test [4] concerns the target T4, FMN-binding domain (FMN domain) of flavocytochrome P450BM-3 (BM3) (Priestia megaterium, UniProt P14779, N538G).
T4 sequence (P14779 472-650 N538G): T1 sequence (P14779 472-650 P541A) with N67G, A70P

Test [5] has as its target T5, FMN-binding domain (FMN domain) of flavocytochrome P450BM-3 (BM3) (Priestia megaterium, UniProt P14779).
T5 sequence (P14779 472-650): T1 sequence (P14779 472-650 P541A) with A70P

Test [6] addresses T6, FMN-binding domain (FMN domain) of flavocytochrome P450BM-3 (BM3) (Priestia megaterium, UniProt P14779, Y537R).
T6 sequence (P14779 472-650 Y537R): T1 sequence (P14779 472-650 P541A) with Y66R, A70P

Test [7] deals with T7, FMN-binding domain (FMN domain) of flavocytochrome P450BM-3 (BM3) (Priestia megaterium, UniProt P14779, G539A/N538A).
T7 sequence (P14779 472-650 N538A/G539A): T1 sequence (P14779 472-650 P541A) with N67A, G68A, A70P

For test [8], the target named is T8, FMN-binding domain (FMN domain) of flavocytochrome P450BM-3 (BM3) (Priestia megaterium, UniProt P14779, Y537H).
T8 sequence (P14779 472-650 Y537H): T1 sequence (P14779 472-650 P541A) with Y66H, A70P

Test [9] concerns the target T9, FMN-binding domain (FMN domain) of flavocytochrome P450BM-3 (BM3) (Priestia megaterium, UniProt P14779, P542A).
T9 sequence (P14779 472-650 P542A): T1 sequence (P14779 472-650 P541A) with A70P, P71A

Residue numbers refer to the chain shown, from its start.

One may read the Kd as the concentration at which binding is half-saturated. A lower Kd goes with a tighter complex.

For the molecule `Cc1cc2nc3c(=O)[nH]c(=O)nc-3n(C[C@H](O)[C@H](O)[C@H](O)COP(=O)(O)O)c2cc1C` [FMN], the Kd in test [1] amounted to 43 ± 7 nM; in [2], 30 ± 5 nM; in test [3], 400 ± 100 nM; in [4], 30 ± 5 nM; in [5] it was 41 ± 18 nM; in [6], 2100 ± 600 nM. Further, the Kd in [7] was 1000 ± 200 nM; in test [8], 350 ± 72 nM; in [9], 140 ± 33 nM.

Source of the values: paper PMC2778857 (Biochemistry, 2009).
